From patent publication EP0565593B1, “REDUCING PESTICIDAL INTERACTIONS IN CROPS” (priority 1990, dated 1992)
“And” between values parts separate entries of the source, which are not always exact repeats. Identical values can stand only once.

What was measured:
Type in all cases: in vivo
[1] = tested on: Corn; assay: Greenhouse test Procedure VI: biocide and antidote in furrow, herbicide PPI in cover layer (Examples 43-47, 59-61; Tables 42-46, 58-60)
Summary of the method: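 Corn seed furrows given granular biocide (COUNTER 15G, 1.1 mg a.i./cm row) and antidote (0.37 mg a.i./cm row); herbicide in acetone or acetone/water incorporated into cover-layer soil (PPI). Duplicate pots in greenhouse, subirrigated plus overhead watering; corn injury observed, in some series thirteen days after PPI, against untreated, herbicide and herbicide+biocide controls.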

[2] = tested on: Giant foxtail (GIFT); assay: whole plant or invertebrate
[3] = tested on: cotton (COTT); assay: Multi-crop greenhouse test, biocide, herbicide and safener applied to soil covers (Examples 65, 66; Tables 64, 65)
Procedure: Tests according to this invention in various crops indicate widespread application of the invention. In Examples 62-66 below are described tests with a variety of herbicides contacted with COUNTER® 15G in the presence and absence of MON-7400 (Antidote No. 12); MON-13900 (No. 1); MON-4660 (No. 16) and flurazole (No. 16). Those tests were conducted according to Procedures IV or V described above and illustrated further in other foregoing examples. Plants used in all tests were, for crops (as abbreviated in parentheses); cotton (COTT); soybean (SOBE); CORN, grain sorghum (GRSO); wheat (WHEA) and RICE, and the weeds giant foxtail (GIFT) and velvetleaf (VELE). The data in the tables below represent averages of two replications.
In this test the crops and weeds were planted 1.3 cm deep in 13.7 cm X 27.7 cm pans containing Dupo silt loam soil. The test safeners were applied in acetone solution and COUNTER 15G as dry granules to soil cover layers and incorporated by shaking in a bag. Treated cover layers were placed on seeded pans which were transferred to greenhouse benches and subirrigated. Herbicide was applied POE six (6) days after PPI initiation and observations of plant injury made ten (10) days later; results are shown in Table 61. The herbicide used in this example was BEACON (No. 8).
In another test in the several crops and weeds used in this test series, the herbicidal component was MON-12000 (No. 1); the other components were the same. the procedure used in this test was the same as that described in Example 62, modified to use a light overhead irrigation (about 0.32 cm/day) during days 4-7 of the test.
In yet another test in this series, XRD-498 (Herbicide No. 21) was used as the herbicidal component in contact with COUNTER 15G in the presence of the above safeners. The various components of the system (biocide, herbicide and safener) were applied concurrently to soil covers of the seeded plants.

[4] = Antidote + Biocide No. 1 in furrow, Herbicide No. 6 0.14 Kg/Ha PPI
[5] = Antidote + Biocide No. 1 in furrow, Herbicide No. 11 0.0044 Kg/Ha PPI
[6] = Antidote + Biocide No. 1 in furrow, Herbicide No. 12 0.0044 Kg/Ha PPI
[7] = Antidote + Biocide No. 1 in furrow, Herbicide No. 13 0.0011 Kg/Ha PPI
[8] = Antidote + Biocide No. 1 in furrow, Herbicide No. 13 0.0022 Kg/Ha PPI
[9] = Antidote + Biocide No. 1 in furrow, Herbicide No. 14 0.07 Kg/Ha PPI
[10] = Antidote + Biocide No. 1 in furrow, Herbicide No. 16 0.07 Kg/Ha PPI, 13 days
[11] = Antidote + Biocide No. 1 in furrow, Herbicide No. 17 0.14 Kg/Ha PPI, 13 days
[12] = Antidote + Biocide No. 1 in furrow, Herbicide No. 18 0.04 Kg/Ha PPI, 13 days
[13] = Antidote + Biocide No. 1 in furrow, Herbicide No. 20 1.12 Kg/Ha PPI, 13 days
[14] = Antidote + Biocide No. 1 in furrow, Herbicide No. 22 0.28 Kg/Ha PPI, 13 days
[15] = Antidote + Biocide No. 1 in furrow, Herbicide No. 24 0.14 Kg/Ha PPI, 13 days
[16] = Antidote + Biocide No. 1 in furrow, Herbicide No. 25 0.14 Kg/Ha PPI, 13 days
[17] = Antidote + Biocide No. 1 in furrow, Herbicide No. 26 2.24 Kg/Ha PPI, 13 days
[18] = Antidote + Biocide No. 1 in furrow, Herbicide No. 28 0.04 Kg/Ha PPI, 13 days
[19] = Table 64, Herb. No. 1 0.018 Kg/Ha + Biocide No. 1 8.96 Kg/Ha + Antidote 4.48 Kg/Ha
[20] = Table 64, Herb. No. 1 0.07 Kg/Ha + Biocide No. 1 8.96 Kg/Ha + Antidote 4.48 Kg/Ha
[21] = Table 64, Herb. No. 1 0.28 Kg/Ha + Biocide No. 1 8.96 Kg/Ha + Antidote 4.48 Kg/Ha
[22] = Table 65, Herb. No. 1 0.018 Kg/Ha + Biocide No. 1 8.96 Kg/Ha + Antidote 4.48 Kg/Ha
[23] = Table 65, Herb. No. 1 0.07 Kg/Ha + Biocide No. 1 8.96 Kg/Ha + Antidote 4.48 Kg/Ha
[24] = Table 65, Herb. No. 1 0.28 Kg/Ha + Biocide No. 1 8.96 Kg/Ha + Antidote 4.48 Kg/Ha

| SMILES | % Inhibition Corn [1, 4] [%] | % Inhibition Corn [1, 5] [%] | % Inhibition Corn [1, 6] [%] | % Inhibition Corn [1, 7] [%] | % Inhibition Corn [1, 8] [%] | % Inhibition Corn [1, 9] [%] | % Inhibition Corn [1, 10] [%] | % Inhibition Corn [1, 11] [%] | % Inhibition Corn [1, 12] [%] | % Inhibition Corn [1, 13] [%] | % Inhibition Corn [1, 14] [%] | % Inhibition Corn [1, 15] [%] | % Inhibition Corn [1, 16] [%] | % Inhibition Corn [1, 17] [%] | % Inhibition Corn [1, 18] [%] | % Inhibition GIFT ([2]; in vivo) | % Inhibition COTT [3, 19] [%] | % Inhibition COTT [3, 20] [%] | % Inhibition COTT [3, 21] [%] | % Inhibition COTT [3, 22] [%] | further results |
| --- | --- | --- | --- | --- | --- | --- | --- | --- | --- | --- | --- | --- | --- | --- | --- | --- | --- | --- | --- | --- | --- |
| CC1(C)OC(c2ccco2)CN1C(=O)C(Cl)Cl (stereo not drawn) [compound 1] | 15 | 15 | 20 | 40 | 70 | 10 | 45 | 45 | 10 | 25 | 5 | 25 | 15 | 20 | 20 | 45% and 60% and 85% and 65% and 90% and 55% | 20 | 35 | 35 | 10 | % Inhibition GIFT ([2]; […], PPI, 13 days after PPI (Table 31)): 70%; % Inhibition COTT [3, 23]: 20%; % Inhibition COTT [3, 24]: 45% |
| COC(=O)COC(c1ccccc1)c1ccccc1 [compound 12] | 10 | 10 | 10 | 35 | 55 | 0 | 40 | 10 | 5 | 25 | 0 | 30 | 0 | 5 | 10 | 45% and 65% and 75% and 50% and 55% and 70% and 90% | 10 | 40 | 40 | 15 | % Inhibition Corn ([1]; Herbicide No. 12 0.0044 Kg/Ha PPI + Biocide No. 1 in furrow, no antidote): 70%; % Inhibition Corn ([1]; Herbicide No. 12 0.0044 Kg/Ha PPI alone, average of two reps): 40%; % Inhibition GIFT ([2]; […], PPI, 14 days after PPI (Table 34)): 60%; % Inhibition COTT [3, 23]: 10%; % Inhibition COTT [3, 24]: 35% |
